Experimental data reported in US11028072B2, “2,4-diamino-6-ethylpyrimidine derivatives with antimalarial activities against Plasmodium falciparum” (National Science and Technology Development Agency, priority 2015, dated 2021).
Like-named read-outs stand apart in the source and are kept apart here.

Columns and labels:
wild type (WT) pfDHFR = wild type (WT) pfDHFR (Plasmodium falciparum, UniProt P13922, N108S/R59C); test: Inhibition of wild type pfDHFR (Ki); type: biochemical
Description: (§1) The synthesized 2,4-diamino-6-ethylpyrimdine derivatives as the hydrochloride salts were tested for the activities against Plasmodium falciparum (P. falciparum) according to the standard methods. These include the inhibition of dihydrofolate reductase (DHFR) enzymes of P. falciparum including, wild type (WT) and quadruple mutants (N51IC59RS108NI164L) (QM). The inhibition was expressed as inhibition constants (Ki) in nano molar (nM).

[1] = system: P. falciparum V1/S (N51I + C59R + S108 + I164L); test: microbe, parasite or virus in culture; type: cell-based, Plasmodium falciparum; details: read-out: IC50 P. falciparum V1/S
Text: (§2) In Vitro Antimalarial Activites Against P. falciparum and Cytotoxicity Towards Mammalian Cells (Vero Cells)

[2] = system: P. falciparum TM4/8.2 (wild type); test: microbe, parasite or virus in culture; type: cell-based, Plasmodium falciparum; details: read-out: IC50 P. falciparum TM4/8.2 (WT)
Text: as §2

[3] = target: quadruple mutant N51I + C59R + S108N + I164L (QM) pfDHFR (Plasmodium falciparum, UniProt P13922, I164L/N51I); test: Inhibition of quadruple mutant pfDHFR (Ki); type: biochemical
Description: as §1

in vitro = details: African green monkey
Text: as §2

[4] = target: T1, Human dihydrofolate reductase (hDHFR) (Homo sapiens, UniProt P00374); test: Inhibition of human dihydrofolate reductase (Ki); type: biochemical; details: human DHFR; hydrochloride salts
T1 sequence (P00374 1-187): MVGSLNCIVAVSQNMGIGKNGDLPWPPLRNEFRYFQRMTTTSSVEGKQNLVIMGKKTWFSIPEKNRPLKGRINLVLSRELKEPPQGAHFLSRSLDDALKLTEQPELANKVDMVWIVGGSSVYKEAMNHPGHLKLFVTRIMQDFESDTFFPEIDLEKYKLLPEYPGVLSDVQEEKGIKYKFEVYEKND

Vero cells = test: in vitro; details: read-out: Cytotoxicity against Vero cells (IC50); Vero cells
Text: as §2

[5] = Plasmodium falciparum, in vitro, quadruple mutant strain V1/S
[6] = Plasmodium falciparum, in vitro, wild-type strain TM4/8.2

Sequence of quadruple mutant N51I + C59R + S108N + I164L (QM) pfDHFR (P13922 whole entry N51I/I164L): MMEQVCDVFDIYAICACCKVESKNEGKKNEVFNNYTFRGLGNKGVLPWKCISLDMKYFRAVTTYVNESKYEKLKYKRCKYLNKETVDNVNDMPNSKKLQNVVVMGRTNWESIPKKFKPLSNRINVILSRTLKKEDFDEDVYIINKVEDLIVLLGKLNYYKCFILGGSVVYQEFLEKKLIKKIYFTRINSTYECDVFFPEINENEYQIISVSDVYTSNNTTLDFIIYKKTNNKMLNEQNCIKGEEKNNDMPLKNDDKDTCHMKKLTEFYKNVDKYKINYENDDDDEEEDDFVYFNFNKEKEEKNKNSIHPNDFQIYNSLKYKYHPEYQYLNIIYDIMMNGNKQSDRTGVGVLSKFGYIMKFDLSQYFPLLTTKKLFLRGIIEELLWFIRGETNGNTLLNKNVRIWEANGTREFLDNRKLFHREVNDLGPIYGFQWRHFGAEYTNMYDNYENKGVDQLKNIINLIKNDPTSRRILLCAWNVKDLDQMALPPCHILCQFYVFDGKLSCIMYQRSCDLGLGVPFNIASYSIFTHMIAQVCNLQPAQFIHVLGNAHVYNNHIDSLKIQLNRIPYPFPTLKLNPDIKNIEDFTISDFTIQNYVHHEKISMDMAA
Sequence of wild type (WT) pfDHFR (P13922 whole entry R59C/N108S): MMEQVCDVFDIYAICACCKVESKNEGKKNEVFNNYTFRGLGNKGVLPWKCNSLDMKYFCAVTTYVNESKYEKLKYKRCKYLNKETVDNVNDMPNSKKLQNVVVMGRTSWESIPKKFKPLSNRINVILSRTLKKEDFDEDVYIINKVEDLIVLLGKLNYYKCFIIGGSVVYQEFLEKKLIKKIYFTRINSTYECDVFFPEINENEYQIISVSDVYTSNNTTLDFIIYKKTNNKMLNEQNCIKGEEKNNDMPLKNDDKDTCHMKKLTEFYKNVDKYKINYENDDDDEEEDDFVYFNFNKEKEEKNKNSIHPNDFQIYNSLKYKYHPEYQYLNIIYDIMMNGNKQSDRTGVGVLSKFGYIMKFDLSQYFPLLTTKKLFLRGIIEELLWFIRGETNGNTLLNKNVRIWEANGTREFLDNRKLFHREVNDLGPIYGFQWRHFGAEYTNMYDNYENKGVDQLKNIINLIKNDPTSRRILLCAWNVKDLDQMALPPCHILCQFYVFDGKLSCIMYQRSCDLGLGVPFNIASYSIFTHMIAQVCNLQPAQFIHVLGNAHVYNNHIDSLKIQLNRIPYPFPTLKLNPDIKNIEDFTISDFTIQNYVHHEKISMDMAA

Row | Compound | melting point [°C] | Ki (wild type (WT) pfDHFR) [nM] | IC50 [1, 5] [nM] | IC50 [2, 6] [nM] | Ki [3] [nM] | IC50 (in vitro) [nM] | Ki [4] [nM] | IC50 ([1]; in vitro, quadruple mutant strain V1/S) [nM] | IC50 [2] [nM] | IC50 (Vero cells) [nM] | Ki hDHFR [4] | IC50 ([1]; Plasmodium falciparum) [nM] | IC50 ([2]; Plasmodium falciparum) [nM]
1 | CCc1nc(N)nc(N)c1-c1cn(-c2cccc(C(=O)O)c2)nn1.Cl [Compound 2, 2,4-diamino-6-ethyl-5-(1-(3-(carboxy)phenyl)-1H-1,2,3-triazol-4-yl)pyrimidine Hydrochloride] | 205 to 207 | 1030 ± 89.3 | > 10000 | > 10000 | 6650 ± 409 | > 10000 | > 100000 |  |  |  |  |  | 
2 | CCc1nc(N)nc(N)c1OCc1cn(-c2cccc(C(=O)O)c2)nn1.Cl [Compound 16, 2,4-diamino-6-ethyl-5-((1-(3-(carboxy)phenyl)-1H-1,2,3-triazol-4-yl)methoxy)pyrimidine Hydrochloride] | 197.5 to 199.5 | 0.27 ± 0.03 | > 25000 | 600 ± 240 | 6.18 ± 0.6 | > 25000 | 817 ± 145 |  |  |  |  |  | 
3 | CCc1nc(N)nc(N)c1OCc1csc(-c2cccc(C(=O)O)c2)n1.Cl [Compound 66, 2,4-diamino-6-ethyl-5-((2-(3-(carboxy)phenyl)thiazol-4-yl)methoxy)pyrimidine Hydrochloride] | 217.5 to 219 | 0.86 ± 0.1 | > 10000 | 2170 ± 540 | 36.7 ± 4.79 | > 10000 | 102 ± 5.26 |  |  |  |  |  | 
4 | CCc1nc(N)nc(N)c1OCCCOc1ccccc1CCC(=O)O [Compound P218, reference compound] |  |  |  |  |  |  | 17.4 ± 3.8 | 56 ± 20 | 4.6 ± 1.9 | > 10000 |  |  | 
5 | CCc1nc(N)nc(N)c1OCCCc1cc(-c2cccc(C(=O)O)c2)no1.Cl [Compound 49, 2,4-diamino-6-ethyl-5-(3-(3-(3-(carboxy)phenyl)isoxazol-5-yl)propoxy)pyrimidine Hydrochloride] | 219 to 220.5 | 0.19 ± 0.02 | 130 ± 40 | 7 ± 1.5 | 0.29 ± 0.01 | > 100000 | 12.6 ± 1.43 |  |  |  |  |  | 
6 | CCc1nc(N)nc(N)c1OCc1cn(-c2ccc(C(=O)OC)cc2)nn1 [Compound 18] |  | 6.54 ± 1.25 | 13600 ± 3220 | 10500 ± 3100 | 833 ± 45 | > 50000 |  |  |  |  | High |  | 
7 | CCc1nc(N)nc(N)c1OCc1csc(-c2ccc(C)cc2)n1 [Compound 67] |  | 0.81 ± 0.05 | 19000 ± 6700 | 1020 ± 530 | 27.3 ± 1.45 | 28900 ± 5740 | > 100000 |  |  |  |  |  | 
8 | CCc1nc(N)nc(N)c1OCc1cn(Cc2ccc(C(=O)O)cc2)nn1 [Compound 29] |  | 14.5 ± 1.62 | > 25000 | > 25000 | 477 ± 32.3 | > 25000 |  |  |  |  | High |  | 
9 | CCc1nc(N)nc(N)c1OCCCc1cn(-c2ccc(C(=O)O)cc2)nn1 [Compound 25] |  | 0.35 ± 0.04 |  |  | 3.52 ± 0.73 | 6400 ± 1080 | 44.8 ± 1.92 |  |  |  |  | 4650 ± 120 | 36 ± 10
10 | CCc1nc(N)nc(N)c1OCCCc1cc(-c2cccc(C(F)(F)F)c2)no1 [Compound 46] |  | 0.39 ± 0.03 |  |  | 1.74 ± 0.14 | 10500 | 26.12 ± 0.24 |  |  |  |  | 17700 ± 4740 | 130 ± 40
11 | CCc1nc(N)nc(N)c1OCc1csc(-c2ccc(F)cc2)n1 [Compound 69] |  | 0.9 ± 0.18 | > 25000 | 790 ± 380 | 45.6 ± 4.68 | > 25000 | 318 ± 29.7 |  |  |  |  |  | 
12 | CCc1nc(N)nc(N)c1OCc1cc(-c2cccc(OC)c2)no1 [Compound 38] |  | 0.55 ± 0.1 | > 25000 | 570 ± 190 | 22.8 ± 3.09 | > 25000 | 1080 ± 31 |  |  |  |  |  | 
